Test results as given in ChEMBL document CHEMBL4052701, “Bioactive new withanolides from the cultured soft coral Sinularia brassica” (Bioorg Med Chem Lett, 2017).

Tested on: Neutrophil
Test: Antiinflammatory activity in human neutrophils assessed as inhibition of fMLP/CB-induced elastase release incubated for 5 mins in presence of MeO-Suc-Ala-Ala-Pro-Val-p-nitroanilide
Format: functional, cell-based
Conditions: not given

| Structure (SMILES) | IC50 [µM] |
| --- | --- |
| C[C@H]1[C@H]([C@@]2(O)O[C@H]3C[C@H]4[C@@H]5CCC6=CC(=O)C=C[C@]6(C)[C@H]5CC[C@]4(C)[C@H]3[C@@H]2C)OC(=O)[C@@H]1C | > 10 |
| C[C@@H]1[C@H]([C@H]2OC(=O)[C@@H](C)[C@H]2C)O[C@H]2C[C@H]3[C@@H]4CCC5=CC(=O)C=C[C@]5(C)[C@H]4CC[C@]3(C)[C@@H]12 | 1.4 |
| C[C@@H]([C@H]1CC[C@H]2[C@@H]3CCC4=CC(=O)C=C[C@]4(C)[C@H]3CC[C@]12C)[C@H]1C[C@H](C)[C@@H](C)C(=O)O1 | > 10 |
| C[C@H]1[C@H]2[C@H](C[C@H]3[C@@H]4CCC5=CC(=O)C=C[C@]5(C)[C@H]4CC[C@]23C)O[C@@]2(OC(=O)[C@@H](C)[C@H]2C)[C@H]1O | > 10 |
| CC[C@H](Nc1ncnc2[nH]cnc12)c1nc2cccc(F)c2c(=O)n1-c1ccccc1 [IDELALISIB] | 0.3 |
| C[C@@H]1C(=O)[C@@]2(OC(=O)[C@H](C)[C@H]2C)O[C@H]2C[C@H]3[C@@H]4CCC5=CC(=O)C=C[C@]5(C)[C@H]4CC[C@]3(C)[C@H]21 | > 10 |
| C[C@H]1[C@H]2[C@H](C[C@H]3[C@@H]4CCC5=CC(=O)C=C[C@]5(C)[C@H]4CC[C@]23C)O[C@]2(OC(=O)[C@H](C)[C@H]2C)[C@H]1O | > 10 |

Tested on: MOLT-4
Test: Cytotoxicity against human MOLT4 cells incubated for 72 hrs by alamar blue assay
Format: functional, cell-based
Conditions: MOLT-4, 72 h

| Structure (SMILES) | IC50 [µM] |
| --- | --- |
| C[C@H]1[C@H]([C@@]2(O)O[C@H]3C[C@H]4[C@@H]5CCC6=CC(=O)C=C[C@]6(C)[C@H]5CC[C@]4(C)[C@H]3[C@@H]2C)OC(=O)[C@@H]1C | 17.2 |
| O=c1[nH]cc(F)c(=O)[nH]1 [FLUOROURACIL] | 6.2 |
| C[C@@H]1[C@H]([C@H]2OC(=O)[C@@H](C)[C@H]2C)O[C@H]2C[C@H]3[C@@H]4CCC5=CC(=O)C=C[C@]5(C)[C@H]4CC[C@]3(C)[C@@H]12 | 12.1 |
| C[C@@H]([C@H]1CC[C@H]2[C@@H]3CCC4=CC(=O)C=C[C@]4(C)[C@H]3CC[C@]12C)[C@H]1C[C@H](C)[C@@H](C)C(=O)O1 | > 40 |
| C[C@H]1[C@H]2[C@H](C[C@H]3[C@@H]4CCC5=CC(=O)C=C[C@]5(C)[C@H]4CC[C@]23C)O[C@@]2(OC(=O)[C@@H](C)[C@H]2C)[C@H]1O | 13.7 |
| C[C@@H]1C(=O)[C@@]2(OC(=O)[C@H](C)[C@H]2C)O[C@H]2C[C@H]3[C@@H]4CCC5=CC(=O)C=C[C@]5(C)[C@H]4CC[C@]3(C)[C@H]21 | > 40 |
| C[C@H]1[C@H]2[C@H](C[C@H]3[C@@H]4CCC5=CC(=O)C=C[C@]5(C)[C@H]4CC[C@]23C)O[C@]2(OC(=O)[C@H](C)[C@H]2C)[C@H]1O | 28.6 |

Tested on: P388
Test: Cytotoxicity against mouse P388 cells incubated for 72 hrs by alamar blue assay
Format: functional, cell-based
Conditions: P388, 72 h

| Structure (SMILES) | IC50 [µM] |
| --- | --- |
| C[C@H]1[C@H]([C@@]2(O)O[C@H]3C[C@H]4[C@@H]5CCC6=CC(=O)C=C[C@]6(C)[C@H]5CC[C@]4(C)[C@H]3[C@@H]2C)OC(=O)[C@@H]1C | 18.7 |
| O=c1[nH]cc(F)c(=O)[nH]1 [FLUOROURACIL] | 5.8 |
| C[C@@H]1[C@H]([C@H]2OC(=O)[C@@H](C)[C@H]2C)O[C@H]2C[C@H]3[C@@H]4CCC5=CC(=O)C=C[C@]5(C)[C@H]4CC[C@]3(C)[C@@H]12 | 29.9 |
| C[C@@H]([C@H]1CC[C@H]2[C@@H]3CCC4=CC(=O)C=C[C@]4(C)[C@H]3CC[C@]12C)[C@H]1C[C@H](C)[C@@H](C)C(=O)O1 | > 40 |
| C[C@H]1[C@H]2[C@H](C[C@H]3[C@@H]4CCC5=CC(=O)C=C[C@]5(C)[C@H]4CC[C@]23C)O[C@@]2(OC(=O)[C@@H](C)[C@H]2C)[C@H]1O | 18.3 |
| C[C@@H]1C(=O)[C@@]2(OC(=O)[C@H](C)[C@H]2C)O[C@H]2C[C@H]3[C@@H]4CCC5=CC(=O)C=C[C@]5(C)[C@H]4CC[C@]3(C)[C@H]21 | > 40 |
| C[C@H]1[C@H]2[C@H](C[C@H]3[C@@H]4CCC5=CC(=O)C=C[C@]5(C)[C@H]4CC[C@]23C)O[C@]2(OC(=O)[C@H](C)[C@H]2C)[C@H]1O | 39.8 |

Tested on: Neutrophil
Test: Antiinflammatory activity in human neutrophils assessed as inhibition of fMLP/CB-induced superoxide anion generation by measuring superoxide […] dismutase inhibitable reduction of ferricytochrome c incubated for 5 mins
Format: functional, cell-based
Conditions: not given

| Structure (SMILES) | IC50 [µM] |
| --- | --- |
| C[C@H]1[C@H]([C@@]2(O)O[C@H]3C[C@H]4[C@@H]5CCC6=CC(=O)C=C[C@]6(C)[C@H]5CC[C@]4(C)[C@H]3[C@@H]2C)OC(=O)[C@@H]1C | > 10 |
| C[C@@H]1[C@H]([C@H]2OC(=O)[C@@H](C)[C@H]2C)O[C@H]2C[C@H]3[C@@H]4CCC5=CC(=O)C=C[C@]5(C)[C@H]4CC[C@]3(C)[C@@H]12 | 3.5 |
| C[C@@H]([C@H]1CC[C@H]2[C@@H]3CCC4=CC(=O)C=C[C@]4(C)[C@H]3CC[C@]12C)[C@H]1C[C@H](C)[C@@H](C)C(=O)O1 | > 10 |
| C[C@H]1[C@H]2[C@H](C[C@H]3[C@@H]4CCC5=CC(=O)C=C[C@]5(C)[C@H]4CC[C@]23C)O[C@@]2(OC(=O)[C@@H](C)[C@H]2C)[C@H]1O | > 10 |
| CC[C@H](Nc1ncnc2[nH]cnc12)c1nc2cccc(F)c2c(=O)n1-c1ccccc1 [IDELALISIB] | 0.07 |
| C[C@@H]1C(=O)[C@@]2(OC(=O)[C@H](C)[C@H]2C)O[C@H]2C[C@H]3[C@@H]4CCC5=CC(=O)C=C[C@]5(C)[C@H]4CC[C@]3(C)[C@H]21 | > 10 |
| C[C@H]1[C@H]2[C@H](C[C@H]3[C@@H]4CCC5=CC(=O)C=C[C@]5(C)[C@H]4CC[C@]23C)O[C@]2(OC(=O)[C@H](C)[C@H]2C)[C@H]1O | > 10 |

Tested on: Neutrophil
Test: Antiinflammatory activity in human neutrophils assessed as inhibition of fMLP/CB-induced elastase release at 10 uM incubated for 5 mins in presence of MeO-Suc-Ala-Ala-Pro-Val-p-nitroanilide
Format: functional
Conditions: not given

| Structure (SMILES) | inhibition at 10 µM [%] |
| --- | --- |
| C[C@H]1[C@H]([C@@]2(O)O[C@H]3C[C@H]4[C@@H]5CCC6=CC(=O)C=C[C@]6(C)[C@H]5CC[C@]4(C)[C@H]3[C@@H]2C)OC(=O)[C@@H]1C | 9.5 |
| C[C@@H]1[C@H]([C@H]2OC(=O)[C@@H](C)[C@H]2C)O[C@H]2C[C@H]3[C@@H]4CCC5=CC(=O)C=C[C@]5(C)[C@H]4CC[C@]3(C)[C@@H]12 | 114 |
| C[C@@H]([C@H]1CC[C@H]2[C@@H]3CCC4=CC(=O)C=C[C@]4(C)[C@H]3CC[C@]12C)[C@H]1C[C@H](C)[C@@H](C)C(=O)O1 | 25 |
| C[C@H]1[C@H]2[C@H](C[C@H]3[C@@H]4CCC5=CC(=O)C=C[C@]5(C)[C@H]4CC[C@]23C)O[C@@]2(OC(=O)[C@@H](C)[C@H]2C)[C@H]1O | 11.4 |
| CC[C@H](Nc1ncnc2[nH]cnc12)c1nc2cccc(F)c2c(=O)n1-c1ccccc1 [IDELALISIB] | 99.6 |
| C[C@@H]1C(=O)[C@@]2(OC(=O)[C@H](C)[C@H]2C)O[C@H]2C[C@H]3[C@@H]4CCC5=CC(=O)C=C[C@]5(C)[C@H]4CC[C@]3(C)[C@H]21 | 12.5 |
| C[C@H]1[C@H]2[C@H](C[C@H]3[C@@H]4CCC5=CC(=O)C=C[C@]5(C)[C@H]4CC[C@]23C)O[C@]2(OC(=O)[C@H](C)[C@H]2C)[C@H]1O | 32.4 |

Tested on: Neutrophil
Test: Antiinflammatory activity in human neutrophils assessed as inhibition of fMLP/CB-induced superoxide anion generation by measuring superoxide […] dismutase inhibitable reduction of ferricytochrome c at 10 uM incubated for 5 mins
Format: functional
Conditions: not given

| Structure (SMILES) | inhibition at 10 µM [%] |
| --- | --- |
| C[C@H]1[C@H]([C@@]2(O)O[C@H]3C[C@H]4[C@@H]5CCC6=CC(=O)C=C[C@]6(C)[C@H]5CC[C@]4(C)[C@H]3[C@@H]2C)OC(=O)[C@@H]1C | 32.1 |
| C[C@@H]1[C@H]([C@H]2OC(=O)[C@@H](C)[C@H]2C)O[C@H]2C[C@H]3[C@@H]4CCC5=CC(=O)C=C[C@]5(C)[C@H]4CC[C@]3(C)[C@@H]12 | 87.7 |
| C[C@@H]([C@H]1CC[C@H]2[C@@H]3CCC4=CC(=O)C=C[C@]4(C)[C@H]3CC[C@]12C)[C@H]1C[C@H](C)[C@@H](C)C(=O)O1 | 26.3 |
| C[C@H]1[C@H]2[C@H](C[C@H]3[C@@H]4CCC5=CC(=O)C=C[C@]5(C)[C@H]4CC[C@]23C)O[C@@]2(OC(=O)[C@@H](C)[C@H]2C)[C@H]1O | 34.3 |
| CC[C@H](Nc1ncnc2[nH]cnc12)c1nc2cccc(F)c2c(=O)n1-c1ccccc1 [IDELALISIB] | 103 |
| C[C@@H]1C(=O)[C@@]2(OC(=O)[C@H](C)[C@H]2C)O[C@H]2C[C@H]3[C@@H]4CCC5=CC(=O)C=C[C@]5(C)[C@H]4CC[C@]3(C)[C@H]21 | 17.3 |
| C[C@H]1[C@H]2[C@H](C[C@H]3[C@@H]4CCC5=CC(=O)C=C[C@]5(C)[C@H]4CC[C@]23C)O[C@]2(OC(=O)[C@H](C)[C@H]2C)[C@H]1O | 14.4 |

Tested on: K562
Test: Cytotoxicity against human K562 cells incubated for 72 hrs by alamar blue assay
Format: functional, cell-based
Conditions: K562, 72 h

| Structure (SMILES) | IC50 [µM] |
| --- | --- |
| C[C@H]1[C@H]([C@@]2(O)O[C@H]3C[C@H]4[C@@H]5CCC6=CC(=O)C=C[C@]6(C)[C@H]5CC[C@]4(C)[C@H]3[C@@H]2C)OC(=O)[C@@H]1C | 12.6 |
| O=c1[nH]cc(F)c(=O)[nH]1 [FLUOROURACIL] | 30.5 |
| C[C@@H]1[C@H]([C@H]2OC(=O)[C@@H](C)[C@H]2C)O[C@H]2C[C@H]3[C@@H]4CCC5=CC(=O)C=C[C@]5(C)[C@H]4CC[C@]3(C)[C@@H]12 | 8.7 |
| C[C@@H]([C@H]1CC[C@H]2[C@@H]3CCC4=CC(=O)C=C[C@]4(C)[C@H]3CC[C@]12C)[C@H]1C[C@H](C)[C@@H](C)C(=O)O1 | > 40 |
| C[C@H]1[C@H]2[C@H](C[C@H]3[C@@H]4CCC5=CC(=O)C=C[C@]5(C)[C@H]4CC[C@]23C)O[C@@]2(OC(=O)[C@@H](C)[C@H]2C)[C@H]1O | 17.4 |
| C[C@@H]1C(=O)[C@@]2(OC(=O)[C@H](C)[C@H]2C)O[C@H]2C[C@H]3[C@@H]4CCC5=CC(=O)C=C[C@]5(C)[C@H]4CC[C@]3(C)[C@H]21 | > 40 |
| C[C@H]1[C@H]2[C@H](C[C@H]3[C@@H]4CCC5=CC(=O)C=C[C@]5(C)[C@H]4CC[C@]23C)O[C@]2(OC(=O)[C@H](C)[C@H]2C)[C@H]1O | 29.7 |

Tested on: HT-29
Test: Cytotoxicity against human HT-29 cells incubated for 72 hrs by alamar blue assay
Format: functional, cell-based
Conditions: HT-29, 72 h

| Structure (SMILES) | IC50 [µM] |
| --- | --- |
| C[C@H]1[C@H]([C@@]2(O)O[C@H]3C[C@H]4[C@@H]5CCC6=CC(=O)C=C[C@]6(C)[C@H]5CC[C@]4(C)[C@H]3[C@@H]2C)OC(=O)[C@@H]1C | 11.2 |
| O=c1[nH]cc(F)c(=O)[nH]1 [FLUOROURACIL] | 7.2 |
| C[C@@H]1[C@H]([C@H]2OC(=O)[C@@H](C)[C@H]2C)O[C@H]2C[C@H]3[C@@H]4CCC5=CC(=O)C=C[C@]5(C)[C@H]4CC[C@]3(C)[C@@H]12 | 18.7 |
| C[C@@H]([C@H]1CC[C@H]2[C@@H]3CCC4=CC(=O)C=C[C@]4(C)[C@H]3CC[C@]12C)[C@H]1C[C@H](C)[C@@H](C)C(=O)O1 | > 40 |
| C[C@H]1[C@H]2[C@H](C[C@H]3[C@@H]4CCC5=CC(=O)C=C[C@]5(C)[C@H]4CC[C@]23C)O[C@@]2(OC(=O)[C@@H](C)[C@H]2C)[C@H]1O | 20.5 |
| C[C@@H]1C(=O)[C@@]2(OC(=O)[C@H](C)[C@H]2C)O[C@H]2C[C@H]3[C@@H]4CCC5=CC(=O)C=C[C@]5(C)[C@H]4CC[C@]3(C)[C@H]21 | > 40 |
| C[C@H]1[C@H]2[C@H](C[C@H]3[C@@H]4CCC5=CC(=O)C=C[C@]5(C)[C@H]4CC[C@]23C)O[C@]2(OC(=O)[C@H](C)[C@H]2C)[C@H]1O | 24.4 |
